# Experimental data: ChEMBL document CHEMBL4270552, “4-(Phenoxy) and 4-(benzyloxy)benzamides as potent and selective inhibitors of mono-ADP-ribosyltransferase PARP10/ARTD10” (Eur J Med Chem, 2018)
# Legend:
# [1] = target: Poly [ADP-ribose] polymerase 2 (Homo sapiens, UniProt Q9UGN5); assay: Inhibition of N-terminal His-tagged thioredoxin-fused human ARTD2 (1 to 583 residues) expressed in Escherichia coli Rosetta2 (DE3) using activated DNA as substrate after 1.5 hrs in presence of NAD+
# [2] = target: Protein mono-ADP-ribosyltransferase PARP4 (Homo sapiens, UniProt Q9UKK3); assay: Inhibition of N-terminal His-tagged human ARTD4 (250 to 565 residues) expressed in Escherichia coli Rosetta2 (DE3) using TCEP as substrate after 2.5 hrs in presence of NAD+
# [3] = target: T1, Poly [ADP-ribose] polymerase tankyrase-2 (Homo sapiens, UniProt Q9H2K2); assay: Inhibition of N-terminal His-tagged Z-basic-fused human ARTD6 (873 to 1161 residues) expressed in Escherichia coli Rosetta2 (DE3) using TCEP as substrate after 18 hrs in presence of NAD+
# T1 sequence (Q9H2K2 whole entry): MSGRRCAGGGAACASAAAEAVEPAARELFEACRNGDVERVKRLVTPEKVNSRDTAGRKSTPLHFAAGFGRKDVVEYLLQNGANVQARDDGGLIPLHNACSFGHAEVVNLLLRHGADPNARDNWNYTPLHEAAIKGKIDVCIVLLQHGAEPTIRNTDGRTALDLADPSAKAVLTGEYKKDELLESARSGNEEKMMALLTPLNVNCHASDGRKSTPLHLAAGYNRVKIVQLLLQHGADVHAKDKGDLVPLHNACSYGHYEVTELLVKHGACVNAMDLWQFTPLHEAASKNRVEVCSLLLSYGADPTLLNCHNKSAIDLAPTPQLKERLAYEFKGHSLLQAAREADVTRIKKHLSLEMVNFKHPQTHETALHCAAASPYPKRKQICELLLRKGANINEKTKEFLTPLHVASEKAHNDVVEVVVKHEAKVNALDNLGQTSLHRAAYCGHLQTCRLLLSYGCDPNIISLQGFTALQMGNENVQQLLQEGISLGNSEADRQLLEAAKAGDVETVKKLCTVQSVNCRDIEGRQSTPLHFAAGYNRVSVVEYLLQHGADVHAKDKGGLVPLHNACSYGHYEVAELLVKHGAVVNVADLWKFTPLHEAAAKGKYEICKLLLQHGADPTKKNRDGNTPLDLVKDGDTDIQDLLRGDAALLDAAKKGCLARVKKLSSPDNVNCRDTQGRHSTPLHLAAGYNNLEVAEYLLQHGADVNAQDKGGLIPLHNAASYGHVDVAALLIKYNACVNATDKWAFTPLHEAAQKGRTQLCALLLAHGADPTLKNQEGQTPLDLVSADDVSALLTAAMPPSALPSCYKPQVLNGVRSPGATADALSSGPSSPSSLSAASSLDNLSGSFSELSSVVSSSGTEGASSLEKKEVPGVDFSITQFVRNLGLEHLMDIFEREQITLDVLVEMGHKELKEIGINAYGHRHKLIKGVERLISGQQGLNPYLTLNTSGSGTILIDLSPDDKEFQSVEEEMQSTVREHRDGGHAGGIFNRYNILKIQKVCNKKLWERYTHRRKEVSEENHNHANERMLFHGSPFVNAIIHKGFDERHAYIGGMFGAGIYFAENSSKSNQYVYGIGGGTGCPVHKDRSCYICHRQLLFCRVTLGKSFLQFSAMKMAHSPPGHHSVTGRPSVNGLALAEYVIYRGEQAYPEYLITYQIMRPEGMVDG
# [4] = target: T2, Protein mono-ADP-ribosyltransferase PARP15 (Homo sapiens, UniProt Q460N3); assay: Inhibition of N-terminal His-tagged human ARTD7 (482 to 678 residues) expressed in Escherichia coli Rosetta2 (DE3) using SRPK2 as substrate after 3 hrs in presence of NAD+
# T2 sequence (Q460N3 whole entry): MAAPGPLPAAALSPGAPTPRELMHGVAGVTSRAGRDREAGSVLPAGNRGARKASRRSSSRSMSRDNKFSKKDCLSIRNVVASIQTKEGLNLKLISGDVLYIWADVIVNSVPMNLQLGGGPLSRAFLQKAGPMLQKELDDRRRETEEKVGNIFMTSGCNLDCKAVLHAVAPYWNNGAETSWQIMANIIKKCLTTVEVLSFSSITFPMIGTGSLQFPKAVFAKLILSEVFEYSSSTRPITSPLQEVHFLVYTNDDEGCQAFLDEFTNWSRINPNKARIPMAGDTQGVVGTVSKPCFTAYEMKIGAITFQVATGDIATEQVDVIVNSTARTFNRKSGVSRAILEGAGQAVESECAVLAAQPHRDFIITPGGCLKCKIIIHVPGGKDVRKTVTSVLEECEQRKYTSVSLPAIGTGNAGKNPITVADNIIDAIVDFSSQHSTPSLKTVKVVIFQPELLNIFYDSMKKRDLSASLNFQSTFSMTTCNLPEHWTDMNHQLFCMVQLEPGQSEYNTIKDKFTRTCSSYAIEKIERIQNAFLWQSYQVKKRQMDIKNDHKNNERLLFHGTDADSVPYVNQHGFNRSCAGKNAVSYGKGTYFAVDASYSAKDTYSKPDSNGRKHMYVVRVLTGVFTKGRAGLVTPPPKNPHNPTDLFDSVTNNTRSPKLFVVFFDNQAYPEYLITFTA
# [5] = target: T3, Protein mono-ADP-ribosyltransferase PARP12 (Homo sapiens, UniProt Q9H0J9); assay: Inhibition of N-terminal His-tagged thioredoxin-fused human ARTD12 (469 to 701 residues) expressed in Escherichia coli Rosetta2 (DE3) after 20 hrs in presence of NAD+
# T3 sequence (Q9H0J9 whole entry): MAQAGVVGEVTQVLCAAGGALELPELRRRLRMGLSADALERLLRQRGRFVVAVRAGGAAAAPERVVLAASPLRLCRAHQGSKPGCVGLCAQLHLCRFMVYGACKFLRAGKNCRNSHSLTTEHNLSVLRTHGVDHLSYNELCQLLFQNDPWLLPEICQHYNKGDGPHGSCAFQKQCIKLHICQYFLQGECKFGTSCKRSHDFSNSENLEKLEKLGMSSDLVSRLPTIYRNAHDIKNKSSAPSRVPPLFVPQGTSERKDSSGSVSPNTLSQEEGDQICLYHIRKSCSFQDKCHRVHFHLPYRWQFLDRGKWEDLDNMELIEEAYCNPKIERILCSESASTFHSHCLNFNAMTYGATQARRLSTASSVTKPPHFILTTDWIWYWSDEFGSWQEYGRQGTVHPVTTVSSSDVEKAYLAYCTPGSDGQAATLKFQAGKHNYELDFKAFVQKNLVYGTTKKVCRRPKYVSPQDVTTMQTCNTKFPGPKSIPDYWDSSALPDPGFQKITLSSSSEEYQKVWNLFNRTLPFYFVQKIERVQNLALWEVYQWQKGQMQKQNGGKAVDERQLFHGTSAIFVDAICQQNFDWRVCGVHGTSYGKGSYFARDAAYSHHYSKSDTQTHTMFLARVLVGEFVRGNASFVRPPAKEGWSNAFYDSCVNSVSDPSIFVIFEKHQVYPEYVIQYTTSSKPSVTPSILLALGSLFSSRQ
# [6] = target: Zinc finger CCCH-type antiviral protein 1 (Homo sapiens) (UniProt Q7Z2W4)
# Zinc finger CCCH-type antiviral protein 1 (Homo sapiens), sequence (Q7Z2W4 whole entry): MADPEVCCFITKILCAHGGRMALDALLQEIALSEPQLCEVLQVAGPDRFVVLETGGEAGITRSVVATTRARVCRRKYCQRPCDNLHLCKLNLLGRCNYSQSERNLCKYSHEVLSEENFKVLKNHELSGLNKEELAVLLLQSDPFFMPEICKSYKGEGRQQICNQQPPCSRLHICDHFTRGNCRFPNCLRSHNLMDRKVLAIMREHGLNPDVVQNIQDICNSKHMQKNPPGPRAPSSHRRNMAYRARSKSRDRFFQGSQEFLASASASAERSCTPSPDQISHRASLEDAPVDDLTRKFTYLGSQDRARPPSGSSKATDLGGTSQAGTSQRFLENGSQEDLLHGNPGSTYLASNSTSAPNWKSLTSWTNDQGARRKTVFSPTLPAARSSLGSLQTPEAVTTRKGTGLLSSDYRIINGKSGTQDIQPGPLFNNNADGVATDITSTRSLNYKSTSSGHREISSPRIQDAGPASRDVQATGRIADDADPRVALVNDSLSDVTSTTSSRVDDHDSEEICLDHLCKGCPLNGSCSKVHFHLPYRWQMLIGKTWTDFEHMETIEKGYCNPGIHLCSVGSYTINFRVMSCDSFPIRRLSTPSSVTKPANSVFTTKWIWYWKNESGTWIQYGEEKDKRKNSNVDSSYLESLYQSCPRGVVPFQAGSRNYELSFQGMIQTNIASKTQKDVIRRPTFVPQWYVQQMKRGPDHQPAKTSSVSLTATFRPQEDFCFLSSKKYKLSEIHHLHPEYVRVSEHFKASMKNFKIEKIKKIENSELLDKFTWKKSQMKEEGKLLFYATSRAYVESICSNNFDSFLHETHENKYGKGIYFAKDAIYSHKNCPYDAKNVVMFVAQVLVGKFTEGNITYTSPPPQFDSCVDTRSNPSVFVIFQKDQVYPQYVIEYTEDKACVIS
# Description: Stabilization of human ARTD13 expressed in Escherichia coli assessed as change in melting temperature at 100 uM by SYPRO Orange-dye based differential scanning fluorimetric method
# Protein mono-ADP-ribosyltransferase PARP4, sequence (Q9UKK3 whole entry, the tested form may be a part): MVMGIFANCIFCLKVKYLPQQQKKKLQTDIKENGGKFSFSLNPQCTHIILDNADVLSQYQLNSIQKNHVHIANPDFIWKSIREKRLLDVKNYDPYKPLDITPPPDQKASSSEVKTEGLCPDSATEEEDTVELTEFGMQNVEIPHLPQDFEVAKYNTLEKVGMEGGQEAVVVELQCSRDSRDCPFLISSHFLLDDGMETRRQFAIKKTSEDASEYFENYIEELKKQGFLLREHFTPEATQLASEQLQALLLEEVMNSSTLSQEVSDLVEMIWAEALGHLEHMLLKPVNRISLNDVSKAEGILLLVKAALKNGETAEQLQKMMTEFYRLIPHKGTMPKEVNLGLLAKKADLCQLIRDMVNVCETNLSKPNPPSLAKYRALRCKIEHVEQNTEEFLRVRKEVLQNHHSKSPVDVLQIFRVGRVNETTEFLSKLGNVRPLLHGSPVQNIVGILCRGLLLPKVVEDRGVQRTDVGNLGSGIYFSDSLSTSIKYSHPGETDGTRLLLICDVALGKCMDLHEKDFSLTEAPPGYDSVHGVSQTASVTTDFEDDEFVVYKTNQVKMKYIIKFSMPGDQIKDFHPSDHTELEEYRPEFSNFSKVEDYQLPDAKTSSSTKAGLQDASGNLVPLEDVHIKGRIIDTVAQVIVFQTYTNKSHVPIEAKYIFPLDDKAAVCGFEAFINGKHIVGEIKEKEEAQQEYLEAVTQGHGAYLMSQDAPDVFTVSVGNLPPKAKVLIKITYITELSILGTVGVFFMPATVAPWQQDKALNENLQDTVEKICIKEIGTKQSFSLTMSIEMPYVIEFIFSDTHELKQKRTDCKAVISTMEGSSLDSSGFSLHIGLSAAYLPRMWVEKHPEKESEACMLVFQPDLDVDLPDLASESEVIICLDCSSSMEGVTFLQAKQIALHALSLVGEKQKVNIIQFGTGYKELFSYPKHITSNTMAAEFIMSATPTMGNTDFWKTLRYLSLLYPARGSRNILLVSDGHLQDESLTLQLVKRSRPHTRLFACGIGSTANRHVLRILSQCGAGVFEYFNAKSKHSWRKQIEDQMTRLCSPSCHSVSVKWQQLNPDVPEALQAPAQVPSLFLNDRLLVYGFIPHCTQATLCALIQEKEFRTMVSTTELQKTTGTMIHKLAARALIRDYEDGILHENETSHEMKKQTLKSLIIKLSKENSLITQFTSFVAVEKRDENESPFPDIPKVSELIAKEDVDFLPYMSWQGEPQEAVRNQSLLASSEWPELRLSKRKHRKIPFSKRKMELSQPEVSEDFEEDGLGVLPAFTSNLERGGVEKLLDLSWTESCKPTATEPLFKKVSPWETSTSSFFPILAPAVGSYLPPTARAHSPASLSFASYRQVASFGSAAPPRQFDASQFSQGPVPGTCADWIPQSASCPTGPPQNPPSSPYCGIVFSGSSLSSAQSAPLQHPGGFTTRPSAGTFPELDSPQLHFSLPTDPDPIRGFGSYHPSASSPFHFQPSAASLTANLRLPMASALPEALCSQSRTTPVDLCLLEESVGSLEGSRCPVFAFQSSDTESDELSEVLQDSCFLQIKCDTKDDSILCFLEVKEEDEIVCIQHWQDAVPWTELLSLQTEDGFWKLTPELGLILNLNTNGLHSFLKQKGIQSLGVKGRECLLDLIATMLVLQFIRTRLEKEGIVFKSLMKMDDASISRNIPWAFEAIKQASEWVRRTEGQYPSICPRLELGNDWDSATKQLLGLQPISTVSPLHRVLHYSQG
# Poly [ADP-ribose] polymerase 2, sequence (Q9UGN5 whole entry, the tested form may be a part): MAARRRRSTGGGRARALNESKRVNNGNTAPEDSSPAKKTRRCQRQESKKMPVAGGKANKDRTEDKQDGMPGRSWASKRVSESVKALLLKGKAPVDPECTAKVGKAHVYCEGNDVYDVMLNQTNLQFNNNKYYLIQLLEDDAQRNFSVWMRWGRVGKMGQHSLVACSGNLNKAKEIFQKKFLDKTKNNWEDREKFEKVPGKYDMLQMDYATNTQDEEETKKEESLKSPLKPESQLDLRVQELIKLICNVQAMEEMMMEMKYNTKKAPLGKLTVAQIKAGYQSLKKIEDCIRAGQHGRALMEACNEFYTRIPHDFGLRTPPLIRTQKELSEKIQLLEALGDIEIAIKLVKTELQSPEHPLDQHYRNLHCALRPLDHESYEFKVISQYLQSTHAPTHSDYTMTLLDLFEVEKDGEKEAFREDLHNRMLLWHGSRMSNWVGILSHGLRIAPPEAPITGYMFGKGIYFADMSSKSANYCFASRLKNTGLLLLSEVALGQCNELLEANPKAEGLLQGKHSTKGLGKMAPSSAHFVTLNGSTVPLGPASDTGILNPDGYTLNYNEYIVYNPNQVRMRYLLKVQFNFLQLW
SMILES,IC50 [1] [µM],IC50 [2] [µM],IC50 [3] [µM],IC50 [4] [µM],IC50 [5] [µM],ΔTm [6] [°C]
NC(=O)c1ccc(Oc2ccc(C(=O)O)cc2)cc1,> 100,> 100,> 100,2.6,> 10,0.72
COc1ccc(C(N)=O)cc1,77,65,> 100,> 10,> 10,0.44
NC(=O)c1ccc(OCc2ccccc2F)cc1,> 100,> 100,> 100,3.3,> 10,0.37
NC(=O)c1ccc(Oc2ccc(C=O)cc2)cc1,> 100,> 100,> 100,> 10,> 10,0.49
